Where two headings read alike, the source gives them in different places.
Tests used:
[1] = system: HIF-1α protein expression in A375 melanoma cells; experiment: HIF-1α protein accumulation in A375 cells (immunoblot, densitometry); assay type: cell-based, human; conditions: for prevention of adenosine-induced HIF-1α protein expression: adenosine 100 μM, antagonist 100 nM, hypoxia 4 hours; for abrogation of the effect of Cl-IB-MECA in HIF-1α modulation: antagonist 10 and 100 nM, Cl-IB-MECA 10 and 100 nM; for inhibition of Cl-IB-MECA-induced increase of HIF-1α protein expression: U0126 10 and 30 μM, SB202190 1 and 10 μM
Description: (§1) Cell culture and hypoxia treatment: Cells were maintained in DMEM (A375), EMEM (NCTC 2544) or RPMI 1640 (U87MG, U2OS) medium containing 10% fetal calf serum, penicillin (100 U/ml), streptomycin (100 ug/ml), and L-glutamine (2 mM) at 37° C. in 5% CO2/95% air. Cells were passaged two or three times weekly at a ratio between 1:5 and 1:10. Hypoxic exposure was in BBL™ GasPak pouch™ System (Becton Dickinson) that reduce oxygen concentration of less than 2% within 2 hours of incubation at 35° C.
Cells were harvested and washed with ice-cold PBS containing 1 mM sodium orthovanadate, AEBSF 104 mM, aprotinin 0.08 mM, leupeptin 2 mM, bestatin 4 mM, pepstatin A 1.5 mM, E-64 1.4 mM. Cells were then lysed in Triton lysis buffer. The protein concentration was determined using BCA protein assay kit (Pierce). […] The gel was then electroblotted onto a nitrocellulose membrane. Membranes were blocked with 5% nonfat dry milk in PBS containing 0.1% Tween-20 and incubated with antibodies against HIF-1α (1:250 dilution) and HIF-1β (1:1000 dilution) in 5% nonfat dry milk in PBS/0.1% Tween-20 overnight at 4° C. Aliquots of total protein sample (50 μg) were analyzed using antibodies specific for phosphorylated (Thr183/Tyr185) or total p44/p42 MAPK (1:5000 dilution), phosphorylated (Thr180/Tyr182) or total p38 MAPK (1:1000 dilution) and for A3 receptor (1 μg/ml dilution). Filters were washed and incubated for 1 hour at room temperature with peroxidase-conjugated secondary antibodies against mouse and rabbit IgG (1:2000 dilution). […] The membranes were then stripped and reprobed with tubulin (1:250) to ensure equal protein loading.
U0126 was used at 10 and 30 uM as inhibitor of MEK-1 and MEK-2 to prevent p44 and p42 MAPK activation. SB202190 was used at 1 and 10 μM as inhibitor of p38 MAPK.
(§2) Densitometry analysis: The intensity of each band in immunoblot assay was quantified using molecular analyst/PC densitometry software (Bio-Rad). […] The data were presented as the mean±S.E., and analyzed by the Student's test.

[2] = system: HIF-1β protein expression in A375 melanoma cells; experiment: HIF-1β protein expression in A375 cells (immunoblot); assay type: cell-based, human; conditions: hypoxia (Cl-IB-MECA: normoxia and hypoxia)
Description: as §1
Cells were harvested and washed with ice-cold PBS containing 1 mM sodium orthovanadate, AEBSF 104 mM, aprotinin 0.08 mM, leupeptin 2 mM, bestatin 4 mM, pepstatin A 1.5 mM, E-64 1.4 mM. Cells were then lysed in Triton lysis buffer. The protein concentration was determined using BCA protein assay kit (Pierce). Equivalent amounts of protein (35 ug) were subjected to electrophoresis on 7.5% sodium dodecyl sulfate-acrylamide gel. The gel was then electroblotted onto a nitrocellulose membrane. Membranes were blocked with 5% nonfat dry milk in PBS containing 0.1% Tween-20 and incubated with antibodies against HIF-1α (1:250 dilution) and HIF-1β (1:1000 dilution) in 5% nonfat dry milk in PBS/0.1% Tween-20 overnight at 4° C. Aliquots of total protein sample (50 μg) were analyzed using antibodies specific for phosphorylated (Thr183/Tyr185) or total p44/p42 MAPK (1:5000 dilution), phosphorylated (Thr180/Tyr182) or total p38 MAPK (1:1000 dilution) and for A3 receptor (1 μg/ml dilution). Filters were washed and incubated for 1 hour at room temperature with peroxidase-conjugated secondary antibodies against mouse and rabbit IgG (1:2000 dilution). […] The membranes were then stripped and reprobed with tubulin (1:250) to ensure equal protein loading.

[3] = system: HIF-1α protein expression in NCTC 2544 keratinocytes; experiment: HIF-1α protein expression in NCTC 2544 keratinocytes under hypoxia; assay type: cell-based, human; conditions: NCTC 2544, Cl-IB-MECA 100 nM, 4 hours of hypoxia
Description: as §1
(§3) Cells were harvested and washed with ice-cold PBS containing 1 mM sodium orthovanadate, AEBSF 104 mM, aprotinin 0.08 mM, leupeptin 2 mM, bestatin 4 mM, pepstatin A 1.5 mM, E-64 1.4 mM. Cells were then lysed in Triton lysis buffer. The protein concentration was determined using BCA protein assay kit (Pierce). Equivalent amounts of protein (35 ug) were subjected to electrophoresis on 7.5% sodium dodecyl sulfate-acrylamide gel. The gel was then electroblotted onto a nitrocellulose membrane. […] Aliquots of total protein sample (50 μg) were analyzed using antibodies specific for phosphorylated (Thr183/Tyr185) or total p44/p42 MAPK (1:5000 dilution), phosphorylated (Thr180/Tyr182) or total p38 MAPK (1:1000 dilution) and for A3 receptor (1 μg/ml dilution). […]

[4] = system: HIF-1α protein expression in U87MG glioblastoma cells; experiment: HIF-1α protein expression in U87MG glioblastoma cells under hypoxia; assay type: cell-based, human; conditions: Cl-IB-MECA 100 nM, 4 hours of hypoxia
Description: as §1, §3

[5] = system: HIF-1α protein expression in U2OS osteosarcoma cells; experiment: HIF-1α protein expression in U2OS osteosarcoma cells under hypoxia; assay type: cell-based, human; conditions: Cl-IB-MECA 100 nM, 4 hours of hypoxia
Description: as §1, §3

[6] = system: p44/p42 MAPK phosphorylation in A375 cells; experiment: p44/p42 MAPK phosphorylation in hypoxic A375 cells (immunoblot); assay type: cell-based, human; conditions: 4 hours in hypoxia
Description: (§4) Cells were harvested and washed with ice-cold PBS containing 1 mM sodium orthovanadate, AEBSF 104 mM, aprotinin 0.08 mM, leupeptin 2 mM, bestatin 4 mM, pepstatin A 1.5 mM, E-64 1.4 mM. Cells were then lysed in Triton lysis buffer. The protein concentration was determined using BCA protein assay kit (Pierce). Equivalent amounts of protein (35 ug) were subjected to electrophoresis on 7.5% sodium dodecyl sulfate-acrylamide gel. The gel was then electroblotted onto a nitrocellulose membrane. Membranes were blocked with 5% nonfat dry milk in PBS containing 0.1% Tween-20 and incubated with antibodies against HIF-1α (1:250 dilution) and HIF-1β (1:1000 dilution) in 5% nonfat dry milk in PBS/0.1% Tween-20 overnight at 4° C. Aliquots of total protein sample (50 μg) were analyzed using antibodies specific for phosphorylated (Thr183/Tyr185) or total p44/p42 MAPK (1:5000 dilution), phosphorylated (Thr180/Tyr182) or total p38 MAPK (1:1000 dilution) and for A3 receptor (1 μg/ml dilution). Filters were washed and incubated for 1 hour at room temperature with peroxidase-conjugated secondary antibodies against mouse and rabbit IgG (1:2000 dilution). […]
as §2

[7] = system: p38 MAPK phosphorylation in A375 cells; experiment: p38 MAPK phosphorylation in hypoxic A375 cells (immunoblot); assay type: cell-based, human; conditions: 4 hours in hypoxia, various concentrations
Description: as §4, §2

[8] = system: HIF-1α protein degradation in A375 cells; experiment: HIF-1α degradation after return of hypoxic A375 cells to normoxia; assay type: cell-based, human; conditions: Cl-IB-MECA 100 nM, 4 hours hypoxia then normoxia 0-15 minutes
Description: as §4, §2

[9] = intact anesthetized rabbits studied in situ; cited from earlier work
[10] = rat 4 vessel occlusion model; cited from earlier work
[11] = transient middle cerebral artery occlusion focal ischemia; cited from earlier work
[12] = Cl-IB-MECA 100 nM, 4 hours in hypoxia

CNC(=O)[C@H]1O[C@@H](n2cnc3c(NCc4cccc(I)c4)nc(Cl)nc32)[C@H](O)[C@@H]1O [Cl-IB-MECA]
HIF-1α protein levels in CoCl2-treated cells ([1]; 100 μM CoCl2, normoxia, 4 hours): able to increase the levels of HIF-1α protein | HIF-1α levels in cells exposed to cycloheximide ([1]; 100 μM CoCl2, normoxia, Cl-IB-MECA 100 nM, CHX 1 μM, within 6 hours): failed to increase | HIF-1α protein expression in the presence of actinomycin D ([1]; Act-D 10 μg/ml, Cl-IB-MECA 100 nM, 4 hours in hypoxia): able to increase HIF-1α protein expression also in the presence of Act-D | concentration inducing maximum expression of HIF-1α protein ([1]; hypoxia, 4 hours): 100 nM | time of maximum peak HIF-1α levels after addition ([1]; hypoxia, Cl-IB-MECA 100 nM): 4 h | HIF-1α protein expression under hypoxic conditions, time course ([1]; hypoxia, Cl-IB-MECA 100 nM, 2-24 hours): increased in a time-dependent manner | HIF-1α protein accumulation in normoxia ([1]; normoxia, Cl-IB-MECA 100 nM): did not promote HIF-1α protein accumulation | modulation of HIF-1β protein expression [2]: did not modify | HIF-1α protein expression [3]: significant increase | HIF-1α protein expression [4]: significant increase | HIF-1α protein expression [5]: significant increase | concentration giving maximum induction of p44/p42 phosphorylation [6]: 100 nM | phosphorylation of p44 and p42 ([6]; nanomolar concentrations): induced | phosphorylation of p38 MAPK [7]: increased the phosphorylation of p38 MAPK in a dose-dependent manner | HIF-1α degradation rate after removal of hypoxic conditions [8]: unchanged degradation rate

CCCn1c(=O)c2[nH]c(-c3cc(OCC(=O)Nc4ccc5c(c4)OCO5)nn3C)nc2n(CCC)c1=O [MRE 2029F20]
prevention of adenosine-induced HIF-1α protein expression [1]: not able to prevent

Cn1cc2c(nc(NC(=O)Nc3ccncc3)n3nc(-c4ccco4)nc23)n1 [MRE 3005F20]
abrogation of the effect of Cl-IB-MECA in HIF-1α modulation ([1]; hypoxia): able to abrogate | modulation of HIF-1β protein expression [2]: neither MRE 3008F20 nor MRE 3005F20 had any effect

CCCn1cc2c(nc(NC(=O)Nc3ccc(OC)cc3)n3nc(-c4ccco4)nc23)n1 [MRE 3008F20]
prevention of adenosine-induced HIF-1α protein expression [1]: abrogated | abrogation of the effect of Cl-IB-MECA in HIF-1α modulation ([1]; hypoxia): able to abrogate | IC50 ([1]; read-out: IC50 for inhibition of HIF-1α protein increase induced by 10 nM Cl-IB-MECA, hypoxia 4 hours, MRE 3008F20 0.3-30 nM): 0.9 ± 0.08 nM | modulation of HIF-1β protein expression [2]: neither MRE 3008F20 nor MRE 3005F20 had any effect

C[C@H](Cc1ccccc1)Nc1ncnc2c1ncn2[C@@H]1O[C@H](CO)[C@@H](O)[C@H]1O [PIA, N^6-1-(phenyl-2R-isopropyl) adenosine]
cardioprotection [9]: pharmacologically induce cardioprotection

Oc1ccc(-c2nc(-c3ccncc3)c(-c3ccc(F)cc3)[nH]2)cc1 [SB202190]
inhibition of Cl-IB-MECA-induced increase of HIF-1α protein expression [1, 12]: able to inhibit

Nc1nc2c(cnn2CCc2ccccc2)c2nc(-c3ccco3)nn12 [SCH 58261, 5-amino-7-(2-phenylethyl)-2-(2-furyl)-pyrazolo[4,3-e]-1,2,4-triazolo[1,5-c]pyrimidine]
prevention of adenosine-induced HIF-1α protein expression [1]: not able to prevent

CSCC[C@@H]1NC(=O)[C@H](CC(C)C)NC(=O)[C@H](CCCNC(=N)N)NC(=O)[C@H](CO)NC(=O)[C@@H]2CSSC[C@@H]3NC(=O)[C@H](CO)NC(=O)CNC(=O)[C@H]([C@@H](C)O)NC(=O)[C@H](CSSC[C@H](N)C(=O)N[C@@H](CCCCN)C(=O)NCC(=O)N[C@@H](CCCCN)C(=O)NCC(=O)N[C@@H](C)C(=O)N[C@@H](CCCCN)C(=O)N2)NC(=O)[C@H](CSSC[C@@H](C(N)=O)NC(=O)[C@H](CCCCN)NC(=O)CNC(=O)[C@H](CO)NC(=O)[C@H](CCCNC(=N)N)NC3=O)NC(=O)[C@H](CC(=O)O)NC(=O)[C@H](Cc2ccc(O)cc2)NC1=O [SNX-111]
neuroprotection [10]: neuroprotective | neuroprotection [11]: neuroprotective

N#CC(=C(/N)Sc1ccccc1N)/C(C#N)=C(\N)Sc1ccccc1N [U0126]
inhibition of Cl-IB-MECA-induced increase of HIF-1α protein expression [1, 12]: able to inhibit

Nc1ncnc2c1ncn2[C@@H]1O[C@H](CO)[C@@H](O)[C@H]1O [adenosine]
modulation of HIF-1β protein expression [2]: did not observe any modulation
